Test results from the METLIN SMRT retention time set (Domingo-Almenara et al. 2019).

Experiment: gradient 5% acetonitrile 3 min, to 50% in 2 min, to 85% in 15 min, held 3 min, 100 µL/min
Conditions: column: Zorbax Extend-C18 2.1 x 50 mm; eluents: water / acetonitrile, 0.1% formic acid
Procedure, shortened: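 Retention time was recorded from adduct peaks, which were picked computationally and each inspected manually. Pure standards ran in mixtures of ~100 molecules on HPLC coupled to a quadrupole time-of-flight mass spectrometer, in positive and negative ionization mode, through a Zorbax Extend-C18 column (2.1 × 50 mm, 1.8 μm) at 100 μL/min. Eluents were water and acetonitrile, each with 0.1% formic acid.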

Structure (SMILES)	RP-LC retention time
O=c1c(=O)n(-c2ccccc2)ccn1Cc1nc(-c2ccccc2)no1	777 s
CCc1nc2cc3c(cc2n1CC(=O)NC(C)c1ccccc1)OCCO3 (stereo not given)	651 s
CCS(=O)(=O)N1C[C@@H](COC)[C@H](c2ccccn2)C1	585 s
COc1ccc2[nH]c(=O)c(CCC(=O)O)cc2c1	712 s
Cc1c(-c2nnc(C(=O)NCCCN3CCOCC3)o2)oc2c(C)cccc12	696 s
CCOC(=O)c1cc(S(=O)(=O)N2CCCC2C(=O)NC2CCCCCCC2)cn1C (stereo not given)	1020 s
O=C(Nc1ccc2c(c1)OCCO2)C1CC(=O)N(CCc2c[nH]c3ccc(Cl)cc23)C1 (stereo not given)	827 s
Fc1ccc(CNc2cc(-n3cccn3)ncn2)cc1	830 s
Fc1ccc(Cn2cc(-c3noc(-c4cccc(F)c4)n3)nn2)cc1	1010 s
COc1cc(NC(=O)CN2CCc3[nH]c4c(C)ccc(F)c4c(=O)c3C2)cc(OC)c1	604 s
Cc1ccc(Cn2nc3n(c2=O)CCCC3)cc1	702 s
COc1ccc(NS(=O)(=O)c2cc(-c3nc(C)c(C(=O)N4CCCC4)s3)n(C)c2)c(OC)c1	794 s
CCCCC(=O)N1CC(F)(F)C[C@H]1c1nnc(-c2cnccn2)o1	715 s
Cc1cccc(C2CCCN2C(=O)c2nn(C)cc2Cl)c1 (stereo not given)	849 s
CCc1nc2cc(-c3noc(-c4cccnc4)n3)ccc2o1	912 s
CN(C)C(=O)c1n[nH]c2c1CN(C(=O)c1ccccc1C(F)(F)F)CC2	725 s
O=C(O)CN1C(=O)CN=C(c2ccccn2)c2cc(Cl)ccc21	696 s
COC(=O)c1sccc1S(=O)(=O)NCC1CCN(Cc2cc(C)oc2C)CC1	579 s
COc1ccc(C2=CC(c3ccc(OC)c(OC)c3)c3c(c4ccccc4oc3=O)O2)cc1OC (stereo not given)	1140 s
CNC(=O)[C@@H]1CN(S(=O)(=O)C(C)C)C[C@H]1c1n[nH]c(C)n1	570 s

Structure (SMILES)	RP-LC retention time
Cc1nn(-c2ccccc2)c2c1N(CCCC(=O)NCCC(C)C)C(=O)CS2	657 s
CCn1c(=O)c2c(cc(C)n2C)n(CC(=O)Nc2cc(OC)cc(OC)c2)c1=O	779 s
CCN1C(=O)c2ccccc2Oc2ccc(C(=O)N3CCN(c4cc(C)ccc4C)CC3)cc21	1190 s
COc1ccc(-c2nc3cc(F)ccc3s2)cc1OC	1030 s
Nc1cc(C2CCN(C(=O)Nc3ccc(F)cc3)CC2)no1	668 s
CCNC(=O)c1cn(-c2ccc(-c3nc(C(C)(C)C)no3)cn2)cn1	858 s
CC1(CNC(=O)COc2ccc(F)cc2)CCOCC1	750 s
Cc1ccc(C)c(CNC(=O)Cn2cnc3onc(C)c3c2=O)c1	764 s
COc1ccc(Cl)cc1C(=O)NCC1(O)CCOCC1	622 s
Cc1ccnc(NC(=O)C2CCCN(S(=O)(=O)c3c[nH]c(C(=O)N4CCCC4)c3)C2)c1 (stereo not given)	614 s
Cc1cccc2c(=O)n(C3CCN(S(=O)(=O)c4cc(F)cc(F)c4)CC3)cnc12	1000 s
O=C(C1CCC1)N1CC(N(Cc2ccncc2)CC2CC2)C1	590 s
CCOc1ccc(NC(=O)N2CCN(c3ccc(=O)n(-c4ccc(F)cc4)n3)CC2)cc1	804 s
CCN1C(=O)C(C)(C(=O)NCc2ccc(Br)cc2)Oc2cccnc21 (stereo not given)	916 s
O=C(NC1CCCCC1)C1CCN(S(=O)(=O)c2cc(C(=O)N3CCCCCC3)cs2)CC1	902 s
CC(=O)N1CCc2cc(N3CC(C(=O)Nc4cccc(Cl)c4F)CC3=O)ccc21 (stereo not given)	742 s
CC(=O)O[C@]1(C(C)=O)CC[C@H]2[C@@H]3CCC4=CC(=O)CCC4=C3[C@@H](c3ccc(N(C)C)cc3)C[C@@]21C	874 s
COC(=O)c1ccc(C2Nc3ccc(OC)cc3[C@H]3OCCC[C@@H]23)cc1 (stereo not given in full)	1020 s
O=c1ccn(-c2ccccc2)nc1-c1nc(-c2ccccn2)no1	685 s
O=C(C1CCC1)N1CCCC(Cc2nncn2CC2CC2)C1 (stereo not given)	596 s

Next, values leading:

RP-LC retention time	Structure (SMILES)
845 s	CC(C)CCNC(=O)C1CCN(Cc2cc3ccccc3n2Cc2cccc(Cl)c2)CC1
932 s	Cc1cccc(OCc2nnc(SCC(=O)Nc3nc(-c4ccccc4)c(C)s3)o2)c1
707 s	Cc1ccc(Nc2ncccc2C(=O)O)cc1C
893 s	O=C(O)CCCC(=O)Nc1nc(-c2ccccc2)c(-c2ccccc2)s1
990 s	CN(C)c1cccc(F)c1C(=O)NC(=O)Nc1ccc(Cl)cc1
914 s	O=C(Nc1ccc2c(c1)OCCO2)N1CCC2(CC1)CC(OCc1ccccc1)CCO2 (stereo not given)
930 s	COc1ccc(-c2nnc(COc3ccc(NC(=O)c4ccccn4)cc3)o2)cc1
863 s	COc1cc(NC(=O)Nc2nc(-c3nc4ccccc4s3)cs2)cc(OC)c1OC
720 s	CCn1c(=O)c(C(=O)NCc2ccc(OC)cc2)nc2cccnc21
1090 s	Cc1sc(NC(=O)c2ccccc2Br)nc1-c1ccccc1
694 s	O=S(=O)(Nc1ccc(F)c(F)c1)c1ccc2nncn2c1
943 s	CCN1C(=O)C(C)(C)COc2cc(NC(=O)Nc3ccccc3C(F)(F)F)ccc21
683 s	CCOc1ccccc1CNc1nc2ccncc2n(CC)c1=O
699 s	COc1ccc(CC(C)(O)CNC(=O)Nc2cccs2)cc1 (stereo not given)
945 s	CCC(CC)C(=O)NCC(c1ccc(Br)cc1)c1c[nH]c2ccccc12 (stereo not given)
757 s	CS(=O)(=O)c1ccccc1C(=O)Nc1ccc2sccc2c1
784 s	O=C(NCc1csc(-c2ccccc2)n1)C1CCN(C(=O)Nc2ccc(F)cc2F)CC1
745 s	COc1ccc(NC(=O)N2C[C@@H]3C[C@H](NS(=O)(=O)c4ccccc4)[C@H]2C3)c(OC)c1
890 s	CCc1ccc(NC(=O)N2CCC(n3cnc4c(Cl)cccc4c3=O)CC2)cc1
804 s	O=C(c1cccs1)N1CCc2ccc(NS(=O)(=O)c3ccccc3Cl)cc2C1
1260 s	Cc1ccc(F)c(NS(=O)(=O)c2cc(-c3nc(C(C)(C)C)cs3)cs2)c1
695 s	CCc1ccc(S(=O)(=O)Nc2cc(-c3cn4ccccc4n3)ccc2C)cc1
738 s	COc1ccccc1C(=O)N1CCC2(C1)C(=O)N(C)c1ccccc12 (stereo not given)
951 s	CC(C(=O)Nc1cccc(F)c1)C1CCN(C(=O)Nc2ccc(Cl)cc2)CC1 (stereo not given)
715 s	O=c1c(Br)c(-c2ccccc2)[nH]c2ccccc12

RP-LC retention time	Structure (SMILES)
659 s	Cc1nc2cccnc2n1C1CCN(C(=O)Nc2ccc(Cl)cc2)CC1
1140 s	COc1c(C(=O)NC(C)c2ccccc2)sc2cccc(F)c12 (stereo not given)
856 s	CSc1ccc(NC(=O)N2C[C@@H]3C[C@H]2C[C@@H]3NS(=O)(=O)c2ccccc2)cc1
1010 s	COc1ccc(-c2csc(NC(=O)CS(=O)(=O)c3ccc(Cl)cc3)n2)cc1
886 s	O=C(Cc1csc(Nc2cccc(C(F)(F)F)c2)n1)NCc1cccs1
772 s	COc1cc(C(=O)Nc2ccc(C)cc2-c2nc3ccccc3[nH]c2=O)cc(OC)c1OC
736 s	COc1ccc(-c2cc3nn(CC(=O)Nc4ccccc4OC)c(=O)n3c(C)n2)cc1
662 s	Cc1ccc2c(=O)c3c([nH]c2c1C)CCN(CC(=O)Nc1ccc(Cl)c(F)c1)C3
1220 s	CCOc1ccccc1NC(=O)N1c2ccccc2CC1c1nc(C(C)C)no1 (stereo not given)
557 s	O=C(NCc1ccccc1)Nc1cnc2c(c1)CCC2
919 s	CCS(=O)(=O)N1CC(=O)N(c2ccc(C)c(Cl)c2)C(C)(C(=O)NCc2ccccc2)C1 (stereo not given)
1070 s	Cc1ccccc1NC(=O)N1CCC2(CC1)NC(=O)c1cc(F)ccc1N2C
680 s	CC(NC(=O)c1cc(-c2ccc(F)cc2)cn1C)c1cccnc1 (stereo not given)
769 s	COc1cccc(C(=O)N2CCC(C(=O)NCc3csc(-c4cccs4)n3)CC2)c1
675 s	CCOc1ccccc1NC(=O)Nc1ccc2c(c1)CC(=O)N2
932 s	COc1ccc2[nH]cc(CCNC(=O)c3sc4ncccc4c3-n3cccc3)c2c1
715 s	COc1ccc(CNC(=O)CN2CCN(Cc3ccccc3C)C(=O)C2=O)cc1
837 s	COc1ccc(-c2nnc(-c3cc(S(=O)(=O)NC(C)(C)CO)ccc3Cl)o2)cc1
1170 s	CCc1sc(NC(=O)c2cc(Cl)c(NC(C)=O)cc2OC)nc1-c1ccccc1
680 s	Cc1cccc(-c2nc3ccccn3c2NC(=O)NCCc2ccccc2)c1
884 s	O=C1CCC(c2ccccc2)=NN1c1nc2ccccc2s1
1160 s	CC1CCc2onc(C(=O)Nc3cccc(Cl)c3)c2C1 (stereo not given)
939 s	COC(=O)c1cc(S(=O)(=O)N2CCCC2C(=O)Nc2ccc(C)c(C)c2)cn1C (stereo not given)
821 s	Cc1ccc(NS(=O)(=O)c2cc3c(=O)n(C)ncn3c2)cc1
956 s	CN(CCc1noc(-c2ccccc2)n1)C(=O)Nc1ccccc1Br
